Reference: ChEMBL document CHEMBL1201862, “PubChem BioAssay data set” (2004)
The source made the active and inactive calls.

Columns and labels:
Fatty acid synthase [1] = target: T1, Fatty acid synthase (Homo sapiens, UniProt P49327); assay: inhibition of human FAS-TE enzyme activity – biochemical, kinetic fluorescence intensity, dose response (AID 624326); assay type: functional;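 also: rate of fluorescence rise from hydrolysis of a fluorogenic O-methyl fluorescein ester substrate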
Fatty acid synthase [2] = target: T1, Fatty acid synthase; assay: inhibition of human FAS-TE enzyme activity – biochemical, endpoint fluorescence intensity, uHTS hits, dose response (AID 624327); assay type: functional;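 also: fluorescence from hydrolysis of an O-methyl fluorescein acyl ester substrate by the enzyme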
[3] = fluconazole-exposed Candida albicans growth modulators – fluorescence, retest, confirmation (AID 2467); assay type: functional, cell-based
[4] = NIH-3T3 fibroblast cytotoxicity, dose response, cytotoxicity control, cell-based, fluorescence, Alamar Blue, secondary assay (AID 2327); assay type: functional;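 also: NIH-3T3 mouse fibroblasts cultured with fluconazole at 8 µg/mL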
[5] = target: T2, Replicative DNA helicase DnaB (Mycobacterium tuberculosis, UniProt P9WMR3); assay: DnaB intein splicing inhibitors, dose response, biochemical, cell-free fluorescence (AID 449749); assay type: functional
T2 sequence (P9WMR3 whole entry): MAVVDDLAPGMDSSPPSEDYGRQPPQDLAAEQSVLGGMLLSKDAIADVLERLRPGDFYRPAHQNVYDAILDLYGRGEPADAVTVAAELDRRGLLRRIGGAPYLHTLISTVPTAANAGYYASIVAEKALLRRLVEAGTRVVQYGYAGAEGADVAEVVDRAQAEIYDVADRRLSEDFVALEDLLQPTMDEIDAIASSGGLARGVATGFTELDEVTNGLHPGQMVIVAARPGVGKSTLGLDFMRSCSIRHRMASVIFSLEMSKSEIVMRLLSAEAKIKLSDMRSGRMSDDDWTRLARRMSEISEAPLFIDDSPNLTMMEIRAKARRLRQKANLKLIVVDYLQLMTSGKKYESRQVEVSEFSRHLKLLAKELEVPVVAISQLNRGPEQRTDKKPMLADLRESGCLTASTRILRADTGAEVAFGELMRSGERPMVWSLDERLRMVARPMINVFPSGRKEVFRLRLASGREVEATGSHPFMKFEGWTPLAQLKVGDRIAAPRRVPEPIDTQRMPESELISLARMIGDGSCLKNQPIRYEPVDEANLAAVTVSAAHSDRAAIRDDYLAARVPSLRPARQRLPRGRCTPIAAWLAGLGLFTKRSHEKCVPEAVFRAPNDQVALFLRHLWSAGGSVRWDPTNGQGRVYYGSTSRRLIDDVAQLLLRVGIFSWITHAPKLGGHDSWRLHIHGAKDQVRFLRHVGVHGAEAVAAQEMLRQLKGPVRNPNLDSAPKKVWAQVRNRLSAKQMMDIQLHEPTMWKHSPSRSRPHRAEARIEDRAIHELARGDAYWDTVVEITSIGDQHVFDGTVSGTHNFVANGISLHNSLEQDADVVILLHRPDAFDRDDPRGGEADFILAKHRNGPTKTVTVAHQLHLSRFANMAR

Protein RecA = target: T3, Protein RecA (Mycobacterium tuberculosis, UniProt P9WHJ3); assay: Fluorescence Cell-Free Homogeneous Dose Retest to Identify Inhibitors of RecA-Intein Splicing Activity. [Related pubchem assays (depositor defined):AID2097, AID2223, AID489010, AID492950]; assay type: functional
T3 sequence (P9WHJ3 whole entry): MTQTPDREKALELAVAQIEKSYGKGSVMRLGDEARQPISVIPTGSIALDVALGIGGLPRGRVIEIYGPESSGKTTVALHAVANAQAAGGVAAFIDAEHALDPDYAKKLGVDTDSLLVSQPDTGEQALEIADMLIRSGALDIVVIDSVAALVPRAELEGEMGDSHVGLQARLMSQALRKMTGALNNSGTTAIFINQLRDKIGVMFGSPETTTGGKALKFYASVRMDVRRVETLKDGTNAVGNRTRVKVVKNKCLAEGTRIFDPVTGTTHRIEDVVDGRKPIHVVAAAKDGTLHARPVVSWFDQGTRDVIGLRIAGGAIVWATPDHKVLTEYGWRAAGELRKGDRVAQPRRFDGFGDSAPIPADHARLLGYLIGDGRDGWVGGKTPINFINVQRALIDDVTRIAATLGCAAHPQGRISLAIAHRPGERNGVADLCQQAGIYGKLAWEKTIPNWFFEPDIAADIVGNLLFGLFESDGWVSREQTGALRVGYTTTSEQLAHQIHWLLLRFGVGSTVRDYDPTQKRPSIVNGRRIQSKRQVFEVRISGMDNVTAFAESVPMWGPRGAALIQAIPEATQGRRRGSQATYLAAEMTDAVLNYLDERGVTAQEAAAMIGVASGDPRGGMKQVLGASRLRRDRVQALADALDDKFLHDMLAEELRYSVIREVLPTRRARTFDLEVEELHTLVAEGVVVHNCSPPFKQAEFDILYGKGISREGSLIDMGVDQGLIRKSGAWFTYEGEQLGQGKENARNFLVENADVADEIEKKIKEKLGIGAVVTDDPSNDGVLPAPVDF

H9c2 = assay: cells; assay type: functional, cell-based; settings: Rattus norvegicus, H9c2, Myocardium;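 also: confirmatory concentration-response retest of ultra-high-throughput screening hits for modulation of myocardial damage; cell death induced by hydrogen peroxide oxidative stress; compound pretreatment for 60 min then peroxide exposure for 2 h; potency is for protecting the cells against peroxide damage rather than for killing them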
[6] = Luminescence Cell-Based Dose Retest to Confirm Inhibitors of Cancer Stem Cells. [Related pubchem assays (depositor defined):AID2717, AID2721]; assay type: functional; settings: Homo sapiens
[7] = viability of uninfected HEp-2 cells – cell-based, HTS, cytotoxicity control for RSV inhibitor project, dose response (AID 2410); assay type: functional; settings: human respiratory syncytial virus
Cytochrome P450 3A4 = Cytochrome P450 3A4 (Homo sapiens, UniProt P08684); settings: Potency;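 also: confirmatory qHTS run detecting inhibitors and substrates of CYP3A4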
[8] = target: T4, Rac GTPase-activating protein 1 (Homo sapiens, UniProt Q9H0H5); assay: blockers of MgcRacGAP-driven Rac1 GTP hydrolysis – biochemical, ADP Hunter fluorescence, primary and confirmatory, confirmation (AID 624330); assay type: functional
T4 sequence (Q9H0H5 whole entry): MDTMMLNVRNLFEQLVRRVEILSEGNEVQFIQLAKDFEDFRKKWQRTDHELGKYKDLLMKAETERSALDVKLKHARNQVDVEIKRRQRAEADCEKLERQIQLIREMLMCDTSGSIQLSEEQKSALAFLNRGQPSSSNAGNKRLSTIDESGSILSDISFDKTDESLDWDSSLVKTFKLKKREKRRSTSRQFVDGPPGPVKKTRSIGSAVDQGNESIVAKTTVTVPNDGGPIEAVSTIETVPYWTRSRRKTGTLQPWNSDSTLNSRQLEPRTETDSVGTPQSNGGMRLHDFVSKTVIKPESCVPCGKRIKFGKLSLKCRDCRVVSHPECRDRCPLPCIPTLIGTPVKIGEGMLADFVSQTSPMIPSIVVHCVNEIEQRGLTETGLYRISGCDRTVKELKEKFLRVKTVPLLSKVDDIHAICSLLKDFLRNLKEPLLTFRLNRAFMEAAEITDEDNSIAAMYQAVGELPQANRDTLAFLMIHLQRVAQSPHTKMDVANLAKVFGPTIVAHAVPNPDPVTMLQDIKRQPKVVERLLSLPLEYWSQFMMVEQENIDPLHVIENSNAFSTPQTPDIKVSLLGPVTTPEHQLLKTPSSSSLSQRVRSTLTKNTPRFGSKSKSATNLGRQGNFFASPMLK

Sequence of Cytochrome P450 3A4 (P08684 whole entry): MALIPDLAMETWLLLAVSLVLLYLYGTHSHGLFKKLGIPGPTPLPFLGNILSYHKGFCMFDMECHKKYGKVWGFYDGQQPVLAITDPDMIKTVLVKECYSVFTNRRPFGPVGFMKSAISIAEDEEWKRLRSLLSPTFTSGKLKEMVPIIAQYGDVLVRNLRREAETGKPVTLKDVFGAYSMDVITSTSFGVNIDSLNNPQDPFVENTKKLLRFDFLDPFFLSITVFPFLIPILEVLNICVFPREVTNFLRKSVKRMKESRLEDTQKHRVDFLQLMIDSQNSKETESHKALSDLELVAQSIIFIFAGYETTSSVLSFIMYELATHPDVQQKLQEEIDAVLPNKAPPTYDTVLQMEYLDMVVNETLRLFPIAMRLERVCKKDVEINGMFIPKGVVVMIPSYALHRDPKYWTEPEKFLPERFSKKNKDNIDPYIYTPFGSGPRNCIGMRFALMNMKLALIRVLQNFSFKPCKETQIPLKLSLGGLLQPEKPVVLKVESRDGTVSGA
T1 sequence (P49327 whole entry): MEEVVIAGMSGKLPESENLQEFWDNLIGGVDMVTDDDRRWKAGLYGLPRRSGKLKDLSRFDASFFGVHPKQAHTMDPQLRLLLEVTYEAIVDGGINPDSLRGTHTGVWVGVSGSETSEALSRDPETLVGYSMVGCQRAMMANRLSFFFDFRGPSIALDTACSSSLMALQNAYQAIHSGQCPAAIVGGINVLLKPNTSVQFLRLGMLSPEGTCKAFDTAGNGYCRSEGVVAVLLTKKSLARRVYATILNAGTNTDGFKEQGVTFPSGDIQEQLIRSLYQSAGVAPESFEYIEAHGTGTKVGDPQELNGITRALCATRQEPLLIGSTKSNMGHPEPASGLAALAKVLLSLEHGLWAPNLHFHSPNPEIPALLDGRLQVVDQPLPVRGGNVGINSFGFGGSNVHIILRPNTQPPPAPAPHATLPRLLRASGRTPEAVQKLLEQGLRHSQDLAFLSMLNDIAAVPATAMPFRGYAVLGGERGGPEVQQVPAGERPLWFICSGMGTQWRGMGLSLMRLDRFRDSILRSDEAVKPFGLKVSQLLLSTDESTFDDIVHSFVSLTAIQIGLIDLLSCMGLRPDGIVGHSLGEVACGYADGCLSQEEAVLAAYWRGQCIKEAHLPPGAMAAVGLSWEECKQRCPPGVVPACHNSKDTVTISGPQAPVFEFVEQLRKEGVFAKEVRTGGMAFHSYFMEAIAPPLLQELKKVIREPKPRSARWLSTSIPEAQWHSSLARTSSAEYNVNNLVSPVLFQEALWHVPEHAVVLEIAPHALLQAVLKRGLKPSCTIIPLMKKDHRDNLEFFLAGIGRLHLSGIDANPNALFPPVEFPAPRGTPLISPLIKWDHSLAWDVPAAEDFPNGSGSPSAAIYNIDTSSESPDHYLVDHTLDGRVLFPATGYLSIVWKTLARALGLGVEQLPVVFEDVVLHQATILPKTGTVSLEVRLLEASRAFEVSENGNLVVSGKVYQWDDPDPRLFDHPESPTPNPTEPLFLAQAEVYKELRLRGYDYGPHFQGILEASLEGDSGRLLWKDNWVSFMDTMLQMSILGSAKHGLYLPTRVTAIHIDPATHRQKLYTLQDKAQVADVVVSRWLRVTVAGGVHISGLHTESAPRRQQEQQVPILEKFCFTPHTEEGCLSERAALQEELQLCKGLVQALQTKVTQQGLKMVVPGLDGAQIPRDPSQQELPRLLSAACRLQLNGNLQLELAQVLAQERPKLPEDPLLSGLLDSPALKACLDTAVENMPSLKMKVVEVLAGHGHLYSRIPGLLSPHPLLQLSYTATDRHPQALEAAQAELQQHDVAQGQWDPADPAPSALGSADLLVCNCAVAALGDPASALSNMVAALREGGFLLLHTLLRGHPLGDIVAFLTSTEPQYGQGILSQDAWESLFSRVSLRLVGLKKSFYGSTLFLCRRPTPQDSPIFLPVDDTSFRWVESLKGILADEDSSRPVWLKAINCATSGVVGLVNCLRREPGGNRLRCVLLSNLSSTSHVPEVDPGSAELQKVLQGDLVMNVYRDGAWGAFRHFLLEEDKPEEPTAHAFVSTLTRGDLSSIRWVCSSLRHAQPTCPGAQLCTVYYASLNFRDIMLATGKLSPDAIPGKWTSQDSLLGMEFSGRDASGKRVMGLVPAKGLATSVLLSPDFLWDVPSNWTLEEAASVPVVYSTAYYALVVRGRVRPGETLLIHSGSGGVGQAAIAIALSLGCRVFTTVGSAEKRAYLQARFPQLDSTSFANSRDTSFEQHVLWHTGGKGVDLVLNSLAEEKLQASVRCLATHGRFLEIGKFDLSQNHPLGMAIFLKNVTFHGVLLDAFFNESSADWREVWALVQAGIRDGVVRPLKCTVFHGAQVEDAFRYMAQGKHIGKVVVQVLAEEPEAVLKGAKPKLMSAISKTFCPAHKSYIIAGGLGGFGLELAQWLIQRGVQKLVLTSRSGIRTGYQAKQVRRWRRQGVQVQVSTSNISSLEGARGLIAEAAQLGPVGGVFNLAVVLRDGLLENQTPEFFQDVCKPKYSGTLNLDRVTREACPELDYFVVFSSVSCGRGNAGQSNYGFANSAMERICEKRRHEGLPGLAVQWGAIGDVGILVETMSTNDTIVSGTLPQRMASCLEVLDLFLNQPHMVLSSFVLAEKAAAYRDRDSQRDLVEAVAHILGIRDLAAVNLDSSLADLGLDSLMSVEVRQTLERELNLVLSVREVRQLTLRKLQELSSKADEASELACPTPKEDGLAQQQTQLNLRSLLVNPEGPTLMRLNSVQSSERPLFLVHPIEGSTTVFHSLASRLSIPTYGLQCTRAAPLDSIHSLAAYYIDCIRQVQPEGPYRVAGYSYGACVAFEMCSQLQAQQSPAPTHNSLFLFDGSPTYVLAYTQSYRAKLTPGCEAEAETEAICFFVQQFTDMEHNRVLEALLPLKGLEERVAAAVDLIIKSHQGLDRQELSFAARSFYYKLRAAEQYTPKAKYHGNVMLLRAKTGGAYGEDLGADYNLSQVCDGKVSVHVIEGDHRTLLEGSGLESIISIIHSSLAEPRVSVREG

Cc1csc(NC(=O)CCNC(=O)c2ccc([N+](=O)[O-])cc2)n1
IC50 (Fatty acid synthase [1]): 7.66 µM (active)
IC50 (Fatty acid synthase [2]): 6.85 µM (active)

O=S(=O)(Cc1ccccc1)N1CCc2ccccc21
EC50 [3]: 1.56 µM (active)
EC50 [4]: > 160 µM (inactive)

CCCc1n[nH]c2c1C(c1ccc(OC(=O)N3CCOCC3)cc1)C(C#N)=C(N)O2 (stereo not drawn)
AC50 [5]: 23.5 µM (active)
EC50 (Protein RecA): 11.8 µM (active)

NC(=O)c1ccc(NC(=O)COc2cccc3c2CCNC3=O)cc1
IC50 (H9c2): > 79 µM (inactive)

O=C(CNC(=O)c1[nH]cnc1C(=O)NCc1ccccc1)OCc1ccccc1
IC50 (H9c2): 40.4 µM (inactive)

COc1cc(-n2c(=O)c3ccccc3n(Cc3cc(=O)n4ccccc4n3)c2=O)cc(OC)c1OC
IC50 (H9c2): 18.7 µM (active)

N#C/C(=C\c1c(F)cccc1Cl)c1nn(-c2ccccc2)c(-n2cccc2)c1C#N
AC50 [6]: 0.966 µM (active)
AC50 [5]: 28.9 µM (active)
CC50 [7]: > 50 µM (active)
EC50 (Protein RecA): 1.34 µM (inconclusive)

COC(=O)[C@@H]1C[C@@]2(O)[C@H](O)[C@H](O)[C@H](O)C[C@H]2N1Cc1ccc(N2CCN(C)CC2)cc1
AC50 (Cytochrome P450 3A4): 31.6 µM (inconclusive)

O=C(COC(=O)c1ccc(Cl)c([N+](=O)[O-])c1)NC1CCCC1
IC50 (Fatty acid synthase [1]): 3.41 µM (active)
IC50 (Fatty acid synthase [2]): 3.12 µM (active)

COc1ccc([N+](=O)[O-])cc1C(=O)Nc1ccc(Cc2ccncc2)cc1
IC50 (Fatty acid synthase [1]): 11.5 µM (active)
IC50 (Fatty acid synthase [2]): 10.9 µM (active)

COc1ccc(OC2C(O)COC2/C=C/C#Cc2ccccc2)cc1 (stereo not drawn)
AC50 (Cytochrome P450 3A4): 3.98 µM (inconclusive)

COC(=O)c1ccc(CNC(=O)/C=C/c2cc([N+](=O)[O-])ccc2OC(F)F)cc1
IC50 (Fatty acid synthase [1]): 4.91 µM (active)
IC50 (Fatty acid synthase [2]): 3.27 µM (active)

COc1ccc(/C=C/C(=O)c2ccccc2)cc1COc1ccc(F)cc1
AC50 [5]: 17.1 µM (active)
EC50 (Protein RecA): 37.2 µM (active)

Cc1nc(N2CCOCC2)c2nc(-c3ccccc3)n(CC(C)(C)CN(C)C)c2n1
AC50 (Cytochrome P450 3A4): 10 µM (inconclusive)

N#C/C(=C\c1ccc(-c2cccc([N+](=O)[O-])c2)o1)C(=O)NCCN1CCOCC1
IC50 (H9c2): > 79 µM (inactive)

CC(C)(C)c1ccc(CSc2ccc(S(=O)(=O)N3CCOCC3)cn2)cc1
IC50 (Fatty acid synthase [1]): 0.683 µM (active)
IC50 (Fatty acid synthase [2]): 1.03 µM (active)

COc1ccc2[nH]cc(CC(N)C(=O)O)c2c1 (stereo not drawn)
AC50 (Cytochrome P450 3A4): 31.6 µM (inconclusive)

COc1ccc(Cn2c(C)nc3ccc([N+](=O)[O-])cc3c2=O)cc1
IC50 (Fatty acid synthase [1]): 3.61 µM (active)
IC50 (Fatty acid synthase [2]): 4.97 µM (active)

Cc1ccc(OCC(=O)NCc2nnc(O)c3ccccc23)cc1
IC50 (H9c2): > 79 µM (inactive)

C[n+]1c(-c2ccccc2)cc(-c2ccc(Cl)cc2)cc1-c1ccccc1.[O-][Cl+3]([O-])([O-])[O-]
EC50 [3]: 0.756 µM (active)
EC50 [4]: > 160 µM (inconclusive)

Cn1ncc(Cl)c1C(=O)NNC(=O)Nc1cccc2ccccc12
EC50 [3]: > 38 µM (not active)
EC50 [4]: > 160 µM (inactive)

OC(COc1ccc2c(c1)OCO2)CN1CCCC1 (stereo not drawn)
EC50 [4]: 53.2 µM (active)

CCN(CC)CCn1c2c(c(SCC(=O)Nc3cccc(C(C)=O)c3)nc1=O)CCCC2
IC50 (H9c2): > 79 µM (inactive)

O=C(CSc1nc(O)c2ccccc2n1)N1CCCCCC1
IC50 (H9c2): 33 µM (inactive)

COc1ccc(C2NC(c3ccc(OC)cc3OC)C(C)C(=O)C2C)c(OC)c1 (stereo not drawn)
AC50 [5]: > 380 µM (inactive)
IC50 [8]: 116 µM (active)
EC50 (Protein RecA): > 380 µM (inactive)

CC(=O)O[C@@]1(C(C)=O)CCC2C3CC(C)C4=CC(=O)CC[C@@]4(C)C3CC[C@]21C (stereo partly drawn)
AC50 (Cytochrome P450 3A4): 39.8 µM (inconclusive)

CSCCC(NC(=O)c1ccc(Cl)c([N+](=O)[O-])c1)C(=O)N1CCN(C/C=C/c2ccccc2)CC1 (stereo not drawn)
IC50 (Fatty acid synthase [1]): 6.62 µM (active)
IC50 (Fatty acid synthase [2]): 8.52 µM (active)

CC1CC(C)CN(C(=O)COC(=O)c2cc([N+](=O)[O-])ccc2N2CCOCC2)C1 (stereo not drawn)
IC50 (Fatty acid synthase [1]): 1.22 µM (active)
IC50 (Fatty acid synthase [2]): 1.3 µM (active)

CN(C(=O)COC(=O)c1cc([N+](=O)[O-])ccc1N1CCOCC1)C1CCCCC1
IC50 (Fatty acid synthase [1]): 0.41 µM (active)
IC50 (Fatty acid synthase [2]): 0.383 µM (active)

CC(=O)Nc1cc(-c2ccc(C(=O)N3CCOCC3)cc2)cn2c(-c3ccc(C(C)=O)cc3)cnc12
IC50 (H9c2): > 79 µM (inactive)

O=C(COC(=O)Cc1nnc(O)c2ccccc12)NNC(=O)c1ccc(Br)cc1
IC50 (H9c2): > 79 µM (inactive)

COc1ccc(C(=O)Nc2cccc(/C(C)=N/NC(=O)c3ccc([N+](=O)[O-])c(C)c3)c2)cc1OC
IC50 (H9c2): > 79 µM (inactive)

O=C1CCCC/C1=N\Nc1ccc(OCc2ccccc2)cc1
EC50 [3]: > 38 µM (not active)
EC50 [4]: > 160 µM (inconclusive)

O=[N+]([O-])c1ccc(N2CCOCC2)c2ccncc12
AC50 [5]: > 380 µM (inactive)
EC50 (Protein RecA): 12.2 µM (active)

CC(Nc1c[nH]c(=O)[nH]c1=O)c1ccccc1 (stereo not drawn)
AC50 [5]: 23.9 µM (active)
EC50 (Protein RecA): 15.5 µM (active)

O=C(CCCCCCCCCCCCC1CCCC1)Nc1ccc(S(=O)(=O)c2ccc(NC(=O)CCCCCCCCCCCCC3CCCC3)cc2)cc1 [CHAULMOSULFONE]
AC50 (Cytochrome P450 3A4): 31.6 µM (inconclusive)
